Experimental data: PubChem BioAssay (NCI)
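Dose response: 5 concentrations. Exposure: 48 h. Format: 96-well plates. Endpoint: linear interpolation; highest concentration if not reached. GI50 marks 50% less growth. Definition used: TGI = concentration required for complete inhibition of growth.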

Assays:
Assay in all cases: growth of human tumour cells (NCI), 48 h
MALME-3M melanoma = tested on: MALME-3M melanoma
NCI-H522 lung = tested on: NCI-H522 lung
RPMI-8226 leukemia = tested on: RPMI-8226 leukemia
RXF 393 renal = tested on: RXF 393 renal
SF-268 CNS = tested on: SF-268 CNS
SF-539 CNS = tested on: SF-539 CNS
SK-OV-3 ovarian = tested on: SK-OV-3 ovarian
CAKI-1 renal = tested on: CAKI-1 renal
MCF7 breast = tested on: MCF7 breast
MDA-MB-435 = tested on: MDA-MB-435

CCOC(=O)c1oc2ccc(OC)c3c2c1CCC3
TGI (MALME-3M melanoma): > 100 µM | TGI (NCI-H522 lung): > 100 µM | TGI (RPMI-8226 leukemia): > 100 µM | TGI (RXF 393 renal): > 100 µM | TGI (SF-268 CNS): > 100 µM | TGI (SF-539 CNS): > 100 µM | TGI (SK-OV-3 ovarian): > 100 µM

COc1cc2c(cc1OC(=O)CC(C)O)C1C(OC2=O)C(OC(C)=O)C=C2CCN(C)[C@H]21 (some centres undefined)
TGI (CAKI-1 renal): > 100 µM | TGI (NCI-H522 lung): > 100 µM | TGI (SF-268 CNS): > 100 µM | TGI (SF-539 CNS): 52.8 µM | TGI (SK-OV-3 ovarian): 57.2 µM

CCN(C(=O)N1CCN(c2cc3c(cc2F)c(=O)c(C(=O)O)cn3C2CC2)CC1)c1nc(-c2ccc(C)cc2)cs1
GI50 (CAKI-1 renal): 1.4 µM | TGI (CAKI-1 renal): > 100 µM | GI50 (MCF7 breast): 1.31 µM | TGI (MCF7 breast): > 100 µM | GI50 (MDA-MB-435): 0.56 µM | TGI (MDA-MB-435): > 100 µM | GI50 (NCI-H522 lung): 1.02 µM | GI50 (RXF 393 renal): 0.38 µM | TGI (RXF 393 renal): 4.2 µM | GI50 (SF-268 CNS): 1.06 µM | TGI (SF-268 CNS): > 100 µM | GI50 (SF-539 CNS): 0.356 µM | TGI (SF-539 CNS): 2.65 µM | GI50 (SK-OV-3 ovarian): 1.53 µM | TGI (SK-OV-3 ovarian): 19.4 µM

O=C(/C(=C/c1ccc([N+](=O)[O-])cc1)c1ccccc1)c1ccccc1
GI50 (MCF7 breast): 3.2 µM | TGI (MCF7 breast): > 100 µM | GI50 (RPMI-8226 leukemia): 2.36 µM | TGI (RPMI-8226 leukemia): 6.49 µM | GI50 (RXF 393 renal): 2.78 µM | TGI (RXF 393 renal): 6.78 µM | GI50 (SF-268 CNS): 3.55 µM | TGI (SF-268 CNS): > 100 µM | GI50 (SK-OV-3 ovarian): 4.19 µM | TGI (SK-OV-3 ovarian): > 100 µM

CCOC(=O)C1Oc2ccc([N+](=O)[O-])c3c2C1(O)CCC3 (centres undefined)
TGI (MALME-3M melanoma): > 100 µM | TGI (NCI-H522 lung): > 100 µM | TGI (RPMI-8226 leukemia): > 100 µM | TGI (RXF 393 renal): > 100 µM | TGI (SF-268 CNS): > 100 µM | TGI (SF-539 CNS): > 100 µM | TGI (SK-OV-3 ovarian): > 100 µM

COc1ccc(N=c2ssc3c(=S)ssc23)cc1
TGI (CAKI-1 renal): > 100 µM | TGI (MALME-3M melanoma): > 100 µM | TGI (NCI-H522 lung): 35.5 µM | TGI (RPMI-8226 leukemia): 38.3 µM | TGI (RXF 393 renal): 38.7 µM | TGI (SF-268 CNS): > 100 µM | TGI (SF-539 CNS): 96.2 µM | TGI (SK-OV-3 ovarian): > 100 µM

N#CC(C(=O)CCC(=O)Nc1cccc(Cl)c1)c1ccccc1 (centres undefined)
TGI (MALME-3M melanoma): > 100 µM | TGI (NCI-H522 lung): > 100 µM | TGI (RPMI-8226 leukemia): > 100 µM | TGI (RXF 393 renal): > 100 µM | TGI (SF-268 CNS): > 100 µM | TGI (SF-539 CNS): > 100 µM | TGI (SK-OV-3 ovarian): > 100 µM

CCOC(=O)C1=C(NC)OC/C1=N\NC(=O)c1ccccc1O
TGI (CAKI-1 renal): > 100 µM | TGI (MALME-3M melanoma): > 100 µM | TGI (NCI-H522 lung): 90.5 µM | TGI (RPMI-8226 leukemia): > 100 µM | TGI (RXF 393 renal): > 100 µM | TGI (SF-268 CNS): > 100 µM | TGI (SF-539 CNS): 60.6 µM | TGI (SK-OV-3 ovarian): > 100 µM

COc1cc(C(=O)C/C(CCC(=O)Nc2ccccc2[N+](=O)[O-])=N\NC(=O)CC#N)ccc1O
TGI (CAKI-1 renal): > 100 µM | TGI (MALME-3M melanoma): > 100 µM | TGI (NCI-H522 lung): > 100 µM | TGI (RPMI-8226 leukemia): > 100 µM | TGI (RXF 393 renal): > 100 µM | TGI (SF-268 CNS): > 100 µM | TGI (SF-539 CNS): > 100 µM | TGI (SK-OV-3 ovarian): > 100 µM

CCC1CN2CCc3cc(OC)c(OC)cc3C2CC1CC1c2cc(OC)c(OC)cc2CCN1C(=O)C1CCCN1C(=O)OCc1ccccc1 (centres undefined)
TGI (CAKI-1 renal): 47.3 µM | TGI (MALME-3M melanoma): 32.4 µM | TGI (RPMI-8226 leukemia): 36.5 µM | TGI (RXF 393 renal): 22.4 µM | TGI (SF-268 CNS): 31.9 µM | TGI (SF-539 CNS): 33 µM

Nc1ncnc2[nH]ncc12
GI50 (CAKI-1 renal): 0.11 µM | TGI (CAKI-1 renal): 1.44 µM | GI50 (MCF7 breast): 0.435 µM | TGI (MCF7 breast): > 100 µM | GI50 (MDA-MB-435): 0.58 µM | TGI (MDA-MB-435): > 56 µM | GI50 (NCI-H522 lung): 0.649 µM | TGI (NCI-H522 lung): 9.48 µM | GI50 (RPMI-8226 leukemia): 0.378 µM | TGI (RPMI-8226 leukemia): 14.3 µM | GI50 (RXF 393 renal): 0.86 µM | TGI (RXF 393 renal): > 28.6 µM | GI50 (SF-268 CNS): 4.19 µM | TGI (SF-268 CNS): > 100 µM | GI50 (SF-539 CNS): 4.17 µM | TGI (SF-539 CNS): > 100 µM | GI50 (SK-OV-3 ovarian): 0.315 µM | TGI (SK-OV-3 ovarian): 4.71 µM
